Reference: PubChem BioAssay (NCI)
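Step 1: Grow cells in 96-well plates. Step 2: Expose to compound for 48 hours at 5 concentrations. Step 3: Interpolate endpoints linearly; if unreached, use highest concentration. GI50 = concentration required for 50% inhibition of growth. TGI: concentration producing complete growth inhibition.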

What was measured:
Assay in all cases: DTP human tumour cell line panel, 48 h
[1] = tested on: 786-0 renal
[2] = tested on: A498 renal
[3] = tested on: A549 NSCLC
[4] = tested on: ACHN renal
[5] = tested on: BT-549 breast
[6] = tested on: CAKI-1 renal
[7] = tested on: CCRF-CEM leukemia
[8] = tested on: COLO 205 colon
[9] = tested on: DU-145 prostate
[10] = tested on: EKVX NSCLC
[11] = tested on: HCC-2998 colon
[12] = tested on: HCT-116 colon
[13] = tested on: HCT-15 colon
[14] = tested on: HL-60(TB) leukemia
[15] = tested on: HOP-62 NSCLC
[16] = tested on: HOP-92 NSCLC
[17] = tested on: HS 578T breast
[18] = tested on: HT29 colon
[19] = tested on: IGROV1 ovarian
[20] = tested on: K-562 leukemia
[21] = tested on: KM12 colon
[22] = tested on: LOX IMVI melanoma
[23] = tested on: M14 melanoma
[24] = tested on: MALME-3M melanoma
[25] = tested on: MCF7 breast
[26] = tested on: MDA-MB-231 breast
[27] = tested on: MDA-MB-435
[28] = tested on: MOLT-4 leukemia
[29] = tested on: NCI-H226 lung
[30] = tested on: NCI-H23 lung
[31] = tested on: NCI-H460 lung
[32] = tested on: NCI-H522 lung
[33] = tested on: NCI/ADR-RES ovarian
[34] = tested on: OVCAR-3 ovarian
[35] = tested on: OVCAR-4 ovarian
[36] = tested on: OVCAR-5 ovarian
[37] = tested on: OVCAR-8 ovarian
[38] = tested on: PC-3 prostate
[39] = tested on: RPMI-8226 leukemia
[40] = tested on: RXF 393 renal
[41] = tested on: SF-268 CNS
[42] = tested on: SF-295 CNS
[43] = tested on: SF-539 CNS
[44] = tested on: SK-MEL-2 melanoma
[45] = tested on: SK-MEL-28 melanoma
[46] = tested on: SK-MEL-5 melanoma
[47] = tested on: SK-OV-3 ovarian
[48] = tested on: SN12C renal
[49] = tested on: SNB-19 CNS
[50] = tested on: SNB-75 CNS
[51] = tested on: SR leukemia
[52] = tested on: SW-620 colon
[53] = tested on: T-47D breast
[54] = tested on: TK-10 renal
[55] = tested on: U251 CNS
[56] = tested on: UACC-257 melanoma
[57] = tested on: UACC-62 melanoma
[58] = tested on: UO-31 renal
[59] = tested on: MDA-N

With `O=S1CCN(Cc2ccc(-c3ccc4ncnc(Nc5ccc(OCc6ccccc6)c(F)c5)c4c3)o2)CC1` as the molecule, how does the GI50 [1] read?
The GI50 was 6.59 µM.

What about the TGI [1] of the same molecule?
Its TGI is 18.6 µM.

And the GI50 [2]?
Its GI50 is 3.68 µM.

And the TGI [2]?
The TGI was 21.6 µM.

What about the GI50 [3] of the same molecule?
Its GI50 is 7.55 µM.

And the TGI [3]?
The TGI was greater than 25 µM.

What about the GI50 [4] of the same molecule?
The GI50 was 757 nM.

What about the TGI [4] of the same molecule?
Its TGI is greater than 25 µM.

And the GI50 [5]?
Its GI50 is 7.88 µM.

And the TGI [5]?
The TGI was greater than 22.8 µM.

And the GI50 [6]?
Its GI50 is 394 nM.

What about the TGI [6] of the same molecule?
The TGI was greater than 25 µM.

And the GI50 [7]?
The GI50 was 8.82 µM.

What about the TGI [7] of the same molecule?
Its TGI is greater than 25 µM.

And the GI50 [8]?
The GI50 was 4.42 µM.

And the TGI [8]?
The TGI was 10.6 µM.

What about the GI50 [9] of the same molecule?
Its GI50 is 4.56 µM.

What about the TGI [9] of the same molecule?
The TGI was greater than 25 µM.

And the GI50 [10]?
Its GI50 is 212 nM.

What about the TGI [10] of the same molecule?
Its TGI is greater than 25 µM.

And the GI50 [11]?
Its GI50 is 9.93 µM.

And the TGI [11]?
The TGI was greater than 25 µM.

What about the GI50 [12] of the same molecule?
The GI50 was 9.96 µM.

What about the TGI [12] of the same molecule?
The TGI was greater than 25 µM.

And the GI50 [13]?
Its GI50 is 8.13 µM.

And the TGI [13]?
The TGI was greater than 25 µM.

And the GI50 [14]?
Its GI50 is 8.32 µM.

And the TGI [14]?
Its TGI is 18.6 µM.

And the GI50 [15]?
The GI50 was 13.8 µM.

What about the TGI [15] of the same molecule?
Its TGI is greater than 25 µM.

What about the GI50 [16] of the same molecule?
Its GI50 is 3.76 µM.

And the TGI [16]?
Its TGI is 17.7 µM.

And the GI50 [17]?
Its GI50 is 8.89 µM.

And the TGI [17]?
The TGI was greater than 25 µM.

What about the GI50 [18] of the same molecule?
Its GI50 is 5.21 µM.

And the TGI [18]?
The TGI was greater than 25 µM.

What about the GI50 [19] of the same molecule?
The GI50 was 1290 nM.

And the TGI [19]?
Its TGI is greater than 25 µM.

What about the GI50 [20] of the same molecule?
The GI50 was 11.9 µM.

What about the TGI [20] of the same molecule?
The TGI was greater than 25 µM.

What about the GI50 [21] of the same molecule?
Its GI50 is 10.1 µM.

What about the TGI [21] of the same molecule?
The TGI was greater than 25 µM.

What about the GI50 [22] of the same molecule?
Its GI50 is 6.39 µM.

And the TGI [22]?
The TGI was greater than 23.4 µM.

And the GI50 [23]?
Its GI50 is 6.26 µM.

And the TGI [23]?
Its TGI is greater than 21.6 µM.

What about the GI50 [24] of the same molecule?
The GI50 was 7.08 µM.

And the TGI [24]?
The TGI was greater than 22.6 µM.

And the GI50 [25]?
Its GI50 is 6.89 µM.

And the TGI [25]?
The TGI was greater than 16.5 µM.

What about the GI50 [26] of the same molecule?
Its GI50 is 7.07 µM.

What about the TGI [26] of the same molecule?
Its TGI is greater than 23.7 µM.

What about the GI50 [27] of the same molecule?
Its GI50 is 7.21 µM.

And the TGI [27]?
The TGI was greater than 24.2 µM.

What about the GI50 [28] of the same molecule?
Its GI50 is 8.76 µM.

What about the TGI [28] of the same molecule?
The TGI was greater than 25 µM.

And the GI50 [29]?
Its GI50 is 5.61 µM.

And the TGI [29]?
Its TGI is 19.2 µM.

And the GI50 [30]?
Its GI50 is 11.3 µM.

And the TGI [30]?
Its TGI is greater than 25 µM.

And the GI50 [31]?
The GI50 was 7.91 µM.

And the TGI [31]?
The TGI was greater than 25 µM.

And the GI50 [32]?
The GI50 was 984 nM.

And the TGI [32]?
Its TGI is greater than 20.1 µM.

What about the GI50 [33] of the same molecule?
The GI50 was 7.36 µM.

And the TGI [33]?
Its TGI is greater than 25 µM.

And the GI50 [34]?
The GI50 was 7.93 µM.

What about the TGI [34] of the same molecule?
Its TGI is greater than 25 µM.

And the GI50 [35]?
The GI50 was 5.75 µM.

What about the TGI [35] of the same molecule?
The TGI was greater than 25 µM.

And the GI50 [36]?
Its GI50 is 13.9 µM.

What about the TGI [36] of the same molecule?
The TGI was greater than 25 µM.

And the GI50 [37]?
The GI50 was 11.4 µM.

And the TGI [37]?
The TGI was greater than 25 µM.

And the GI50 [38]?
Its GI50 is 9.98 µM.

What about the TGI [38] of the same molecule?
Its TGI is greater than 25 µM.

And the GI50 [39]?
Its GI50 is 8.71 µM.

What about the TGI [39] of the same molecule?
Its TGI is greater than 25 µM.

And the GI50 [40]?
The GI50 was 4.45 µM.

What about the TGI [40] of the same molecule?
The TGI was 13.2 µM.

What about the GI50 [41] of the same molecule?
Its GI50 is 17.8 µM.

What about the TGI [41] of the same molecule?
The TGI was greater than 25 µM.

What about the GI50 [42] of the same molecule?
The GI50 was 7.63 µM.

What about the TGI [42] of the same molecule?
Its TGI is greater than 22.1 µM.

And the GI50 [43]?
The GI50 was 5.84 µM.

And the TGI [43]?
Its TGI is 15.1 µM.

What about the GI50 [44] of the same molecule?
The GI50 was 5.46 µM.

What about the TGI [44] of the same molecule?
Its TGI is 12.2 µM.

And the GI50 [45]?
The GI50 was 6.8 µM.

What about the TGI [45] of the same molecule?
Its TGI is greater than 20.5 µM.

What about the GI50 [46] of the same molecule?
The GI50 was 3.44 µM.

What about the TGI [46] of the same molecule?
The TGI was 7 µM.

And the GI50 [47]?
The GI50 was 71.3 nM.

What about the TGI [47] of the same molecule?
The TGI was 226 nM.

What about the GI50 [48] of the same molecule?
The GI50 was 8.07 µM.

And the TGI [48]?
The TGI was greater than 25 µM.

What about the GI50 [49] of the same molecule?
The GI50 was 23.4 µM.

And the TGI [49]?
Its TGI is greater than 25 µM.

And the GI50 [50]?
Its GI50 is greater than 13.1 µM.

What about the TGI [50] of the same molecule?
Its TGI is greater than 25 µM.

What about the GI50 [51] of the same molecule?
The GI50 was 9.29 µM.

What about the TGI [51] of the same molecule?
The TGI was greater than 25 µM.

What about the GI50 [52] of the same molecule?
The GI50 was 10.8 µM.

And the TGI [52]?
Its TGI is greater than 25 µM.

What about the GI50 [53] of the same molecule?
Its GI50 is 3.22 µM.

What about the TGI [53] of the same molecule?
The TGI was greater than 19.2 µM.

And the GI50 [54]?
The GI50 was 232 nM.

And the TGI [54]?
Its TGI is greater than 25 µM.

What about the GI50 [55] of the same molecule?
Its GI50 is 13.9 µM.

And the TGI [55]?
The TGI was greater than 25 µM.

What about the GI50 [56] of the same molecule?
Its GI50 is 6.66 µM.

What about the TGI [56] of the same molecule?
Its TGI is greater than 25 µM.

What about the GI50 [57] of the same molecule?
Its GI50 is 5.1 µM.

What about the TGI [57] of the same molecule?
The TGI was 16 µM.

What about the GI50 [58] of the same molecule?
Its GI50 is 4.85 µM.

And the TGI [58]?
The TGI was greater than 25 µM.

What does the source list for `Nc1nc(NNc2ccccc2F)cc(=O)[nH]1`?
TGI [1]: > 100 µM; TGI [2]: > 100 µM; TGI [3]: > 100 µM; TGI [4]: > 100 µM; TGI [5]: > 100 µM; TGI [7]: > 100 µM; TGI [8]: > 100 µM; TGI [9]: > 100 µM; TGI [10]: > 100 µM; TGI [11]: > 100 µM; TGI [12]: > 100 µM; TGI [13]: > 100 µM; TGI [14]: > 100 µM; TGI [15]: > 100 µM; TGI [17]: > 100 µM; TGI [18]: > 100 µM; TGI [19]: > 100 µM; TGI [20]: > 100 µM; TGI [21]: > 100 µM; TGI [22]: > 100 µM; TGI [23]: > 100 µM; TGI [24]: > 100 µM; TGI [25]: > 100 µM; TGI [26]: > 100 µM; TGI [27]: > 100 µM; TGI [59]: > 100 µM; TGI [28]: > 100 µM; TGI [29]: > 100 µM; TGI [31]: > 100 µM; TGI [33]: > 100 µM; TGI [34]: > 100 µM; TGI [35]: > 100 µM; TGI [36]: > 100 µM; TGI [37]: > 100 µM; TGI [38]: > 100 µM; TGI [39]: > 100 µM; TGI [42]: > 100 µM; TGI [43]: > 100 µM; TGI [45]: > 100 µM; TGI [46]: > 100 µM; TGI [48]: > 100 µM; TGI [49]: > 100 µM; TGI [51]: > 100 µM; TGI [52]: > 100 µM; TGI [54]: > 100 µM; TGI [55]: > 100 µM; TGI [56]: > 100 µM; TGI [58]: > 100 µM
